# Source: US8603531B2, “Nanometer-sized prodrugs of NSAIDs” (Cedars-Sinai Medical Center, priority 2008, dated 2013)
# Tests used:
# [1] = Hydrodynamic size and size distribution of nanoprodrugs by dynamic light scattering; format: physicochemical
# Method: Briefly, 25 mg of the compounds were dissolved in acetone (5 ml) containing polysorbate 80 (0.1% w/v). […] Following 15 min of magnetic stirring, the acetone was removed under reduced pressure at room temperature.
# The hydrodynamic size measurement and size distribution of the nanoprodrugs were performed by the dynamic light scattering (DLS) using a Coulter N4-Plus Submicron Particle Sizer (Coulter Corporation, Miami, Fla., USA). The nanoprodrugs were diluted in deionized water and the analysis was performed at a scattering angle of 90° and at a temperature of 25° C. Three separate preparations were analyzed for each nanoprodrug. For each preparation mean diameter and mean polydispersity index (P.I.) of three determinations were calculated. The mean diameter±standard deviation (S.D.) and P.I.±S.D. were calculated from the three mean diameters and mean P.I.'s of the three separate preparations.
# esterase [2] = assay: Recovery of NSAIDs from oxidized nanoprodrugs (esterase hydrolysis); format: in vitro ADME, porcine; settings: 250 μM, HOCl 500 μM 2 min, esterase 2 U/ml, overnight 37° C.
# Method: The recovery yield of NSAIDs was determined for oxidized and non-oxidized nanoprodrugs. The nanoprodrugs prepared from ALA-TEG-Ibu, ALA-TEG-Npx and ALA-TEG-Ind (250 μM in PBS, pH 7.4) were incubated in the presence and absence of HOCl (500 μM) for 2 min. Esterase (2 U/ml) was added and mixed by pipetting up and down. In order to determine the total amount of available NSAIDs from the oxidized and non-oxidized nanoprodrugs, the hydrolysis was carried out overnight at 37° C. The reaction mixture was centrifuged for 10 min at 20,000×g and the hydrolyzed NSAIDs in the supernatant were quantified using RP-HPLC. Error bar represents±S.D. calculated from triplicate determinations.
# Esterase (porcine liver) = assay: Enzymatic destabilization / hydrolysis of nanoprodrugs by esterase; format: in vitro ADME; settings: esterase 5 U/ml; for Parent drugs hydrolyzed / released from the nanoprodrugs after 1 h incubation / Concentration of the released drugs / Drug release: nanoprodrug 500 μM; for Concentration of the released drugs / Drug release: 60 min, room temperature, PBS pH 7.4; for Concentrations of the released drugs after 12 h incubation: compared with ALA-TEG-Npx and ALA-TEG-Ibu after 1 h
# Method: Esterase (porcine liver, Sigma, code E3019) was added to the final concentration of 5 U/ml. For the nanoprodrugs from the three bifunctional prodrugs, ALA-TEG-Ibu, ALA-TEG-Npx and ALA-TEG-Ind, the reduction in turbidity was monitored using ultraviolet/visible spectrometer (Bio-Rad SmartSpec™ 3000) for 60 min at room temperature with a wavelength λ=500 nm and 1 min acquisition interval. For the nanoprodrugs from the three dimeric prodrugs, Ibu2TEG, Npx2TEG and Ind2TEG, the samples were taken during the incubation for 12 h at room temperature with appropriate time interval and the reduction in turbidity was measured.
# To determine the amount of enzymatically hydrolyzed NSAIDs, samples were centrifuged for 10 min at 20,000×g and the supernatants were analyzed by RP-HPLC using a C18 reversed phase column (Section 2.5).
# The concentration of the NSAIDs was determined using calibration curves generated in the concentration range of 25-500 μM. Error bar represents±S.D. calculated from triplicate determinations. The stability of the nanoprodrugs under the experimental conditions in the absence of esterase was evaluated as follows. The purified nanoprodrugs were suspended in PBS (pH 7.4) and incubated for 12 h at room temperature. The amount of the intact prodrugs was determined using RP-HPLC as described above.
# esterase [3] = assay: Effect of nanoprodrug oxidation on the rate of enzymatic hydrolysis; format: in vitro ADME, porcine; settings: determined immediately after addition of esterase 2 U/ml; HOCl 500 μM 2 min
# Method: In order to evaluate the effect of prodrug oxidation on the rate of enzymatic hydrolysis, the initial hydrolysis rate of NSAIDs from the oxidized and non-oxidized nanoprodrugs was determined. The nanoprodrugs prepared from ALA-TEG-Ibu, ALA-TEG-Npx and ALA-TEG-Ind (250 μM in PBS, pH 7.4) were incubated in the absence and presence of HOCl (500 μM) for 2 min. Esterase (2 U/ml) was added and mixed by pipetting up and down. The reaction mixture was centrifuged immediately after addition of esterase and the supernatant was quickly transferred into a new tube and incubated further to complete hydrolysis. The hydrolyzed NSAIDs in the supernatant were quantified using RP-HPLC as described above. Error bar represents±S.D. calculated from triplicate determinations.
# To evaluate the sequence of hydrolysis after oxidation, the nanoprodrugs were incubated in presence of HOCl (500 μM) for 2 min and esterase (2 U/ml) was added. The reaction mixture was mixed by pipetting up and down and immediately centrifuged for 10 min at 20,000×g. The supernatant was analyzed using RP-HPLC as described above.
# [4] = Oxidative destabilization of nanoprodrugs (turbidity at 500 nm after HOCl); settings: nanoprodrug 250 μM, HOCl 25-1000 μM
# Method: The nanoprodrugs were purified by centrifuging three times at 20,000×g for 10 min at 25° C. and resuspending each time in the same volume of deionized water. The purified nanoprodrugs were resuspended in phosphate buffered saline (PBS, pH 7.4) to give the final concentration of 250 μM NSAID derivatives. The concentration of HOCl in the diluted commercial sodium hypochlorite solution was determined spectrophotometrically (ε292=350 M^−1 cm^−1) (Morris, 1966). HOCl was added to the suspension of nanoprodrugs to give the final concentration of 25-1000 μM and the reduction in turbidity was measured immediately using ultraviolet/visible spectrometer (Bio-Rad SmartSpec™ 3000, Hercules, Calif., USA) at room temperature with a wavelength λ=500 nm.
# [5] = test system: U87-MG human glioma cell line; settings: nanoprodrug 10 to 100 μM, 3 days
# Method: The cells were grown and maintained in Minimum Essential Medium (MEM) (Invitrogen) containing antibiotics 100 U/mL penicillin (Invitrogen) and 100 μg/mL streptomycin (Invitrogen), and supplemented with 10% fetal bovine serum (FBS) (Invitrogen). Cells were kept at 37° C. in a humidified atmosphere including 5% CO2.
# Nanoprodrugs were prepared from the monomeric derivative Ibu2TEG (25 mg) as described in Example 6 and dialyzed in phosphate buffered saline (PBS) over night. The human glioma cells (U87-MG) were seeded in a 25 cm^2 flask at 2.5×10^5 cells/5 mL and allowed to grow for 24 h. The medium was changed and the cells were treated with nanoprodrugs at final concentration ranging from 10 to 100 μM for the monomeric derivative Ibu2TEG. After a 3-day treatment, the medium was remove, cells were washed with PBS and 1 mL of 0.25% trypsin/EDTA (Gibco) was added to detach the cells. […] Control culture was treated with PBS.
# [6] = test system: human glioma cells (U87-MG); assay: Cell death by propidium iodide uptake; format: cell-based; settings: 200 μM of ibuprofen in DMSO, 72 h
# Method: The human glioma cells (U87-MG) were seeded at 1×10^5 cells per well in 6-well plates, and allowed to grow for 24 h. The medium was changed and the cells were treated with 50 or 100 μM of nanoprodrug of Ibu2TEG or 200 μM of ibuprofen dissolved in DMSO for 72 h. Control cultures were treated with DMSO or cell culture medium only. After the end of treatment, glioma cells were incubated with 5 μM of propidium iodide (Sigma) for 1 h. Propidium iodide fluorescence was excited at 515-560 nm using an inverted microscope fitted with a standard rhodamine filter.
# [7] = test system: human glioma cells (U87-MG); assay: WST-1 cell viability assay, glioma cells; format: cell-based; settings: free ibuprofen up to 600 μM, 72 h
# Method: Growth inhibition was evaluated by the WST-1 (water-soluble tetrazolium salt) colorimetric assay (Boehringer Mannheim) according to the manufacturer's instructions. […] Cells were incubated at 37° C. for 1-4 h, and the absorbance was read by an ELISA plate reader at 450 nm. The cell viability was calculated as follows: Cell viability (%)=(Abss/Absc)×100, where Abss is the absorbance of cells treated with drugs and Absc is the absorbance of control cells incubated with cell culture medium only (See FIG. 9.).
# [8] = another NSAID nanosphere, Table 2C
# [9] = hydrodynamic size of additional nanospheres, Table 2B
# [10] = polydispersity index of additional nanospheres, Table 2B
# [11] = nanoprodrugs of the derivative, Table 2A, n = 3, ±S.D., DLS 25° C.
# [12] = polydispersity index of nanoprodrugs, Table 2A, n = 3, ±S.D.
Compound,"Size (nm) [1, 9]","P.I. [1, 10]","Size (nm) [1, 11]","P.I. [1, 12]",further results
"O=C(OCCOCCOCCOCCOC(=O)c1ccccc1Nc1cccc(C(F)(F)F)c1)c1ccccc1Nc1cccc(C(F)(F)F)c1 [(FA)2TEG, Tetraethylene glycol(flufenamic acid)2]",–,–,–,–,"P.I. [1, 8]: 0.11; Size (nm) [1, 8]: 118 ± 32 nm"
"CC(C)Cc1ccc(C(C)C(=O)OCCOCCOC(=O)CCCCC2CCSS2)cc1 (stereo not drawn) [ALA-DEG-Ibu, (α-Lipoic acid)-diethylene glycol(ibuprofen)]",210 ± 53 nm,0.09,–,–,–
"COc1ccc2cc([C@H](C)C(=O)OCCOCCOC(=O)CCCCC3CCSS3)ccc2c1 (stereo partly drawn) [ALA-DEG-Npx, (α-Lipoic acid)-diethylene glycol(naproxen)]",274 ± 56 nm,0.05,–,–,–
"CC(C)Cc1ccc(C(C)C(=O)OCCOCCOCCOCCOC(=O)C(C)c2ccc(CC(C)C)cc2)cc1 (stereo not drawn) [Ibu2TEG, Tetraethylene glycol(ibuprofen)2]",–,–,186 ± 11 nm,0.13 ± 0.02,Cell number compared to the control culture [5]: significant decrease in cell number; Concentrations of the released drugs after 12 h incubation (Esterase (porcine liver)): comparable
COc1ccc2cc(C(C)C(=O)OCCOCCOCCOCCOC(=O)C(C)c3ccc4cc(OC)ccc4c3)ccc2c1 (stereo not drawn) [Npx2TEG],–,–,259 ± 9 nm,0.06 ± 0.02,Concentrations of the released drugs after 12 h incubation (Esterase (porcine liver)): comparable
CC(C)Cc1ccc(C(C)C(=O)O)cc1 (stereo not drawn) [ibuprofen],–,–,–,–,Propidium iodide incorporation (cell death) [6]: no significant propidium iodide incorporation; Effect on cell viability [7]: did not show any significant effect

# Now from value to compound, other results behind:
"Size (nm) [1, 9]","P.I. [1, 10]","Size (nm) [1, 11]","P.I. [1, 12]",Compound,further results
187 ± 54 nm,0.13,–,–,"COc1ccc2c(c1)c(CC(=O)OCCOCCOC(=O)CCCCC1CCSS1)c(C)n2C(=O)c1ccc(Cl)cc1 (stereo not drawn) [ALA-DEG-IND, (α-Lipoic acid)-diethylene glycol(indomethacin)]",–
149 ± 36 nm,0.08,–,–,"O=C(CCCCC1CCSS1)OCCOCCOCCOCCOC(=O)c1ccccc1Nc1cccc(C(F)(F)F)c1 (stereo not drawn) [ALA-TEG-FA, (α-Lipoic acid)-tetraethylene glycol(flufenamic acid)]",–
–,–,251 ± 13 nm,0.10 ± 0.03,CC(C)Cc1ccc(C(C)C(=O)OCCOCCOCCOCCOC(=O)CCCCC2CCSS2)cc1 (stereo not drawn) [ALA-TEG-Ibu],Released parent drugs from the oxidized nanoprodrugs in comparison with non-oxidized controls (esterase [2]): 80%; Parent drugs hydrolyzed / released from the nanoprodrugs after 1 h incubation (Esterase (porcine liver)): approximately 90%; Concentration of the released drugs (Esterase (porcine liver)): 417 µM; Drug release (Esterase (porcine liver)): 83%; Increase of the amount of hydrolyzed drugs from oxidized vs non-oxidized nanoprodrugs (esterase [3]): approximately two
–,–,253 ± 25 nm,0.09 ± 0.05,COc1ccc2c(c1)c(CC(=O)OCCOCCOCCOCCOC(=O)CCCCC1CCSS1)c(C)n2C(=O)c1ccc(Cl)cc1 (stereo not drawn) [ALA-TEG-Ind],Induction phase of oxidative destabilization [4]: longest induction phase
–,–,298 ± 6 nm,0.05 ± 0.01,COc1ccc2cc([C@H](C)C(=O)OCCOCCOCCOCCOC(=O)CCCCC3CCSS3)ccc2c1 (stereo partly drawn) [ALA-TEG-Npx],Released parent drugs from the oxidized nanoprodrugs in comparison with non-oxidized controls (esterase [2]): 87%; Induction phase of oxidative destabilization [4]: less apparent; Parent drugs hydrolyzed / released from the nanoprodrugs after 1 h incubation (Esterase (porcine liver)): approximately 90%; Concentration of the released drugs (Esterase (porcine liver)): 454 µM; Drug release (Esterase (porcine liver)): 91%; Increase of the amount of hydrolyzed drugs from oxidized vs non-oxidized nanoprodrugs (esterase [3]): three
–,–,159 ± 10 nm,0.06 ± 0.03,COc1ccc2c(c1)c(CC(=O)OCCOCCOCCOCCOC(=O)Cc1c(C)n(C(=O)c3ccc(Cl)cc3)c3ccc(OC)cc13)c(C)n2C(=O)c1ccc(Cl)cc1 [Ind2TEG],–
